Target: T1, acellular dermis model (contracted collagen gel) (Bos taurus, UniProt P02453+P02465)
T1 construct: purchased Koken, Tokyo, Japan; host or cells: The gel was contracted by dermal fibroblasts, which were then destroyed by washing with de-ionized water
Assay: Experimental induction of yellowish change in acellular dermis model by carbonyl modification or glycation (colorimetry b*)
Parameters: species or system bovine
Settings: 37° C.; for yellowish change of the dermal model (b*), long term treatment: 50 μM, 50 days, FIGS. 6 C and D; for yellowish change of the gel (b*): 9 days, FIGS. 6 A and B
Procedure: Skin color was measured by using a chromameter Konica-Minolta CM 2600d. The measurement of excised skin samples was performed by placing the skin samples on a white board. Data were expressed in the CIE L*a*b* color space, and the parameter b* was employed as a value for yellowish color.
A dermal equivalent model consisted of contracted collagen gel containing a trace amount of other extracellular matrix was prepared according to the method described by Tsunenaga et al. with a slight modification. Briefly, dermal fibroblasts (1×10^6 cells) were cultivated in 10 ml of Dulbecco's modified Eagle's medium supplemented with 10% fetal bovine serum and 0.3% acid-solubilized bovine type I collagen (Koken, Tokyo, Japan) in a petri dish of 60 mm diameter at 37° C. and 5% CO2. After 7 days of culture, a contracted collagen gel approximately 15 mm diameter was produced. Thereafter, this dermal equivalent model was extensively washed with serial changes of an excess amount of de-ionized water to destroy fibroblasts and to remove soluble materials.
The prepared acellular dermis model was incubated in 2.5 ml of an aqueous solution of chemical reagents, containing acrolein (50 μM to 10 mM) and 4-hydroxynonenal (4-HNE, 50 μM to 10 mM) for the carbonyl modification, and ribose (200 mM) and glyoxal (10 mM) for glycation. They were INCUBATED at 37° C. and the solutions were changed twice a week. Changes taking place in their color were monitored by colorimetry.
To confirm a link suspected between the carbonyl modification and the yellowish change of the dermis, the inventors examined the effect of experimentally produced carbonyl modification on the color of an acellular dermis model, and selected a contracted collagen gel as a dermis model, and treated it with acrolein or 4-HNE to induce carbonyl modification, or with d-ribose or glyoxal to induce glycation as a reference. […] Furthermore, a long term treatment of the dermis model with 50 μM acrolein or 50 μM 4-HNE, which were almost equivalent to those of the physiological concentrations in human tissue, also led to the yellowish colorization (FIGS. 6 C and D).

T1 sequence (P02453 162-1217 limits assumed): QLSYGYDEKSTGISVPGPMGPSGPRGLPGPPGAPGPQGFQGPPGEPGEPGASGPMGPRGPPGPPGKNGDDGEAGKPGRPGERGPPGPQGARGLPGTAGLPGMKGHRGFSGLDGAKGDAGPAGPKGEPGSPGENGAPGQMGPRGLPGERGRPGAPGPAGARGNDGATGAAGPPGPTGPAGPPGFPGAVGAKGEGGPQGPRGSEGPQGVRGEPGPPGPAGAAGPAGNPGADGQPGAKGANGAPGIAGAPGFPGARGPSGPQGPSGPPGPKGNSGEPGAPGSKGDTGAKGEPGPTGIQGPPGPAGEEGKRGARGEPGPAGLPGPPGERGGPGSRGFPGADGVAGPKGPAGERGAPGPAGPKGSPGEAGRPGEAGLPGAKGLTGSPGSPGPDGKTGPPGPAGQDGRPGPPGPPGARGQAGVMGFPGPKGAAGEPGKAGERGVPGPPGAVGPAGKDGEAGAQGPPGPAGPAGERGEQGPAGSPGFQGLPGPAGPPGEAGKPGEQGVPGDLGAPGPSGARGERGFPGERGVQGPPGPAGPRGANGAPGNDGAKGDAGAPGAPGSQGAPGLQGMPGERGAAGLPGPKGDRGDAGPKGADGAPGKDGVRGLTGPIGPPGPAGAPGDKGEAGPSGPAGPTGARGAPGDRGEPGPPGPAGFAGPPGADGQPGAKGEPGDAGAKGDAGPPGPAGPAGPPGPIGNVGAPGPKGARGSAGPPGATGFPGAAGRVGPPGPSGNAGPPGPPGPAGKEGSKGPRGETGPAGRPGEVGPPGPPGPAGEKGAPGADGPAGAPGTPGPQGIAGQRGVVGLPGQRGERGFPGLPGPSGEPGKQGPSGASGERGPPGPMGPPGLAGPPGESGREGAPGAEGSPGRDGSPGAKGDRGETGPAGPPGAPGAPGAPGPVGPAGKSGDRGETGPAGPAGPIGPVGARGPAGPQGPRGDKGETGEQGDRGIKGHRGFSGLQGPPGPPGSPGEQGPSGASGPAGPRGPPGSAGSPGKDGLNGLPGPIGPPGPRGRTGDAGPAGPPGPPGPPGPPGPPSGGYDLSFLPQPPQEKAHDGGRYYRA
T1 sequence (P02465 80-1117 limits assumed): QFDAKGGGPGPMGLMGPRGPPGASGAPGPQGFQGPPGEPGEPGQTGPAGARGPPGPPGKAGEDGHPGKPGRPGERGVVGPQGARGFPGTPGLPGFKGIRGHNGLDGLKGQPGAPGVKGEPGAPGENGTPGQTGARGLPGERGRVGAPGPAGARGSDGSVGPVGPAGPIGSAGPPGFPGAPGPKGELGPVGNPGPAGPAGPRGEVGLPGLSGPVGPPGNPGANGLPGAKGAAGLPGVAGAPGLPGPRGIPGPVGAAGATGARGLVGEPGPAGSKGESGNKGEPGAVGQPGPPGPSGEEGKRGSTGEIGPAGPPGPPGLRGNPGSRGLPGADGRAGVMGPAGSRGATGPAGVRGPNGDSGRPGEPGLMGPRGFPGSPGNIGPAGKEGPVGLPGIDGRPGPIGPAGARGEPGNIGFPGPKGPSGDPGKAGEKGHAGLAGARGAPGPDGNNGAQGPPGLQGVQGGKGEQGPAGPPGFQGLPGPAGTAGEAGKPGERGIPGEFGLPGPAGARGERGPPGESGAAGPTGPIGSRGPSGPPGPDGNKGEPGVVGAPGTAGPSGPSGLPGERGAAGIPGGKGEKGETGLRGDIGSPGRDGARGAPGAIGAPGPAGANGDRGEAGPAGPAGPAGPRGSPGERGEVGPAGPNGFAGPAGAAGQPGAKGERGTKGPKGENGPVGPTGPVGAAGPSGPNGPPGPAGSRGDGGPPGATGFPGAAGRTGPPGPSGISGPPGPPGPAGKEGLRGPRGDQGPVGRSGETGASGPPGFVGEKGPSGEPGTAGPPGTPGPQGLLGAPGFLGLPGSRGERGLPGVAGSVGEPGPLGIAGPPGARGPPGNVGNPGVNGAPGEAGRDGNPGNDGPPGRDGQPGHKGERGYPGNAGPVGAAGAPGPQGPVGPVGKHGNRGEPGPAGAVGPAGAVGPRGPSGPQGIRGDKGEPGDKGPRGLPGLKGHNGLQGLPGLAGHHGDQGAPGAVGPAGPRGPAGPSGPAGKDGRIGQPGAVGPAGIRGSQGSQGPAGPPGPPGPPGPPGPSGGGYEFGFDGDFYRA

Compound | yellowish change of the dermal model (b*), long term treatment | yellowish change of the gel (b*) (10 mM) | yellowish change of the gel (b*) (200 mM)
CCCCCC(O)/C=C/C=O (stereo not drawn) [4-HNE, 4-hydroxynonenal] | reached the maximum in the first 10 days | significant yellowish change | –
C=CC=O [acrolein] | almost linear increase depending on the treatment period | significant yellowish change | –
O=C[C@H](O)[C@H](O)[C@H](O)CO [d-ribose] | – | – | only a slight yellowish change
O=CC=O [glyoxal] | – | only a slight yellowish change | –

From US20120114576A1, “Method for preventing or treating yellowish discoloration of skin” (Shiseido Company, Ltd., priority 2010, published 2012)
